Laboratory results taken from paper doi:10.1101/2025.01.30.635686v1 (biorxiv, 2025).

Target: T1, YME1LAAA (monomeric AAA+ domain) (Homo sapiens, UniProt Q96TA2)
T1 sequence (Q96TA2 317-588): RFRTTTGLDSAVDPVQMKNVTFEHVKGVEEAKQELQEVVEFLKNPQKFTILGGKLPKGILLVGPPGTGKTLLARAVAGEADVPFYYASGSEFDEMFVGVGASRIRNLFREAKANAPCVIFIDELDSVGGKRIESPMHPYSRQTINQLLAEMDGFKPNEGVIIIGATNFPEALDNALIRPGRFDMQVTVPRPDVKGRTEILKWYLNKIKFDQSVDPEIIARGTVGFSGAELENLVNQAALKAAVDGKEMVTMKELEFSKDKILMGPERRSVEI
Test: methyl-TROSY NMR titration
Format: binding

Kd: 4.6 ± 2.3 µM
Compound: Nc1ncnc2c1ncn2[C@@H]1O[C@H](COP(=O)(O)OP(=O)(O)O)[C@@H](O)[C@H]1O [ADP]
